In article PMC4303209, “A novel phosphatidylinositol 3-kinase (PI3K) inhibitor directs a potent FOXO-dependent, p53-independent cell cycle arrest phenotype characterized by the differential induction of a subset of FOXO-regulated genes” (Breast Cancer Research : BCR, 2014):

System: MCF-7 breast cancer cells
Assay: Microarray gene expression analysis (Agilent whole human genome 4 x 44K; compound vs DMSO, LIMMA log2 fold change)
Type: cell-based
Conditions: cell cycle genes

For Cn1ncc2c(N3CCOCC3)nc(-c3cccc(O)c3)nc21 [ETP-45658], the “STAT5A log2FC” value (Gene 6776) was 0.569, the “STAT5B log2FC” value (Gene 6777) was 0.093 and the “AURKA log2FC” value (Gene 6790) was 0.163. For the same compound, the “STK10 log2FC” value (Gene 6793) was -0.333, the “AURKC log2FC” value (Gene 6795) was 0.077 and the “SUV39H1 log2FC” value (Gene 6839) was -0.686. The “TACC1 log2FC” value (Gene 6867) was 0.112, the “ADAM17 log2FC” value (Gene 6868) was 0.578 and the “TAF1 log2FC” value (Gene 6872) was 0.237. The “TAL1 log2FC” value (Gene 6886) was -0.533, the “TBX3 log2FC” value (Gene 6926) was -0.702 and the “TCF3 log2FC” value (Gene 6929) was -0.071. For the same compound, the “DYNLT3 log2FC” value (Gene 6990) was -0.257, the “DYNLT1 log2FC” value (Gene 6993) was 0.039 and the “TERF1 log2FC” value (Gene 7013) was 0.607. The “TERF2 log2FC” value (Gene 7014) was -0.131, the “TFAP4 log2FC” value (Gene 7023) was 0.268 and the “NR2F2 log2FC” value (Gene 7026) was 0.124. The “TFDP1 log2FC” value (Gene 7027) was -0.484, the “TFDP2 log2FC” value (Gene 7029) was 0.532 and the “TGFB1 log2FC” value (Gene 7040) was -0.640. For the same compound, the “THBS1 log2FC” value (Gene 7057) was -0.941, the “TNF log2FC” value (Gene 7124) was -1.647 and the “TNFAIP3 log2FC” value (Gene 7128) was -0.659. For the same compound, the “TOP2A log2FC” value (Gene 7153) was 0.987, the “TOP2B log2FC” value (Gene 7155) was 1.103 and the “TOP3A log2FC” value (Gene 7156) was -0.181. For the same compound, the “TP53 log2FC” value (Gene 7157) was -0.193, the “TP53BP2 log2FC” value (Gene 7159) was 0.300 and the “TPR log2FC” value (Gene 7175) was 0.896. For the same compound, the “TSC1 log2FC” value (Gene 7248) was 0.395, the “TSC2 log2FC” value (Gene 7249) was -0.413 and the “TSG101 log2FC” value (Gene 7251) was 0.390. For the same compound, the “TTK log2FC” value (Gene 7272) was 1.754, the “TUBG1 log2FC” value (Gene 7283) was -0.283 and the “UBA52 log2FC” value (Gene 7311) was 0.322. For the same compound, the “UBB log2FC” value (Gene 7314) was 0.069, the “UBC log2FC” value (Gene 7316) was 0.294 and the “UBE2B log2FC” value (Gene 7320) was 0.582. For the same compound, the “UBE2D1 log2FC” value (Gene 7321) was 0.498, the “UBE2E1 log2FC” value (Gene 7324) was 0.262 and the “UBE2I log2FC” value (Gene 7329) was -0.395. The “WEE1 log2FC” value (Gene 7465) was -0.074, the “WNT5A log2FC” value (Gene 7474) was 0.075 and the “WNT10B log2FC” value (Gene 7480) was -0.451. For the same compound, the “WNT9A log2FC” value (Gene 7483) was 0.073, the “XPC log2FC” value (Gene 7508) was 0.604 and the “XRCC2 log2FC” value (Gene 7516) was -0.596. The “YWHAG log2FC” value (Gene 7532) was -0.492, the “ZNF16 log2FC” value (Gene 7564) was 0.343 and the “ZBTB17 log2FC” value (Gene 7709) was 0.065. For the same compound, the “PTP4A1 log2FC” value (Gene 7803) was -0.345, the “EVI5 log2FC” value (Gene 7813) was 0.609 and the “ALMS1 log2FC” value (Gene 7840) was 0.617. The “NR4A3 log2FC” value (Gene 8013) was 0.735, the “NUP214 log2FC” value (Gene 8021) was -0.742 and the “FOSL1 log2FC” value (Gene 8061) was -2.502. For the same compound, the “CUL5 log2FC” value (Gene 8065) was -0.432, the “YEATS4 log2FC” value (Gene 8089) was 1.304 and the “HMGA2 log2FC” value (Gene 8091) was -1.656. For the same compound, the “CHAF1B log2FC” value (Gene 8208) was 0.083, the “CLTCL1 log2FC” value (Gene 8218) was -0.209 and the “USP9X log2FC” value (Gene 8239) was 0.632. For the same compound, the “SMC1A log2FC” value (Gene 8243) was 0.142, the “CDC7 log2FC” value (Gene 8317) was 0.500 and the “RAD54L log2FC” value (Gene 8438) was -0.289. For the same compound, the “CUL4B log2FC” value (Gene 8450) was 0.695, the “CUL4A log2FC” value (Gene 8451) was 0.552 and the “CUL1 log2FC” value (Gene 8454) was 0.479. The “KLF11 log2FC” value (Gene 8462) was 1.337, the “OFD1 log2FC” value (Gene 8481) was 1.019 and the “PKP4 log2FC” value (Gene 8502) was 0.170. For the same compound, the “GAS7 log2FC” value (Gene 8522) was -0.364, the “DGKZ log2FC” value (Gene 8525) was -0.549 and the “CAMK1 log2FC” value (Gene 8536) was -0.088. The “CDC14B log2FC” value (Gene 8555) was 0.259, the “CDK10 log2FC” value (Gene 8558) was 0.167 and the “MADD log2FC” value (Gene 8567) was 0.423. For the same compound, the “DYNLL1 log2FC” value (Gene 8655) was -0.944, the “TNKS log2FC” value (Gene 8658) was 0.686 and the “BECN1 log2FC” value (Gene 8678) was 0.486. The “CDC23 log2FC” value (Gene 8697) was 0.451, the “CRADD log2FC” value (Gene 8738) was -0.101 and the “CCNK log2FC” value (Gene 8812) was -0.603. For the same compound, the “BANF1 log2FC” value (Gene 8815) was -0.450, the “CDK5R1 log2FC” value (Gene 8851) was -0.154 and the “IER3 log2FC” value (Gene 8870) was -1.789. The “SPHK1 log2FC” value (Gene 8877) was -0.334, the “CDC16 log2FC” value (Gene 8881) was 0.890 and the “CCNA1 log2FC” value (Gene 8900) was 0.079. The “TIMELESS log2FC” value (Gene 8914) was 0.236, the “PHOX2B log2FC” value (Gene 8929) was -0.044 and the “MBD4 log2FC” value (Gene 8930) was 0.489. The “BTRC log2FC” value (Gene 8945) was 0.108, the “WASL log2FC” value (Gene 8976) was 0.239 and the “RNF8 log2FC” value (Gene 9025) was -0.050. The “PRC1 log2FC” value (Gene 9055) was 0.420, the “USP2 log2FC” value (Gene 9099) was -0.057 and the “USP8 log2FC” value (Gene 9101) was 0.690. For the same compound, the “SMC3 log2FC” value (Gene 9126) was 1.332, the “EXO1 log2FC” value (Gene 9156) was 0.057 and the “ARHGEF2 log2FC” value (Gene 9181) was -0.734. For the same compound, the “ZW10 log2FC” value (Gene 9183) was 0.473, the “BUB3 log2FC” value (Gene 9184) was 0.588 and the “NOLC1 log2FC” value (Gene 9221) was -0.505. The “CCPG1 log2FC” value (Gene 9236) was 0.930, the “MAPKAPK2 log2FC” value (Gene 9261) was -0.374 and the “PIWIL1 log2FC” value (Gene 9271) was 0.057. The “RECQL5 log2FC” value (Gene 9400) was 0.154, the “ROCK2 log2FC” value (Gene 9475) was 0.291 and the “PSMF1 log2FC” value (Gene 9491) was -0.383. The “VPS4B log2FC” value (Gene 9525) was 0.614, the “CLOCK log2FC” value (Gene 9575) was 0.069 and the “MAD2L1BP log2FC” value (Gene 9587) was -0.350. The “ARHGEF10 log2FC” value (Gene 9639) was 0.265, the “MDC1 log2FC” value (Gene 9656) was -0.639 and the “CEP135 log2FC” value (Gene 9662) was 0.532. The “KIAA0430 log2FC” value (Gene 9665) was 0.757, the “CROCC log2FC” value (Gene 9696) was -0.051 and the “ESPL1 log2FC” value (Gene 9700) was 0.453. The “CEP57 log2FC” value (Gene 9702) was 1.199, the “UTP14C log2FC” value (Gene 9724) was 0.374 and the “KNTC1 log2FC” value (Gene 9735) was 0.636. For the same compound, the “RASSF2 log2FC” value (Gene 9770) was 0.675, the “CKAP5 log2FC” value (Gene 9793) was 0.439 and the “SFI1 log2FC” value (Gene 9814) was -0.103. For the same compound, the “RB1CC1 log2FC” value (Gene 9821) was 1.457, the “MELK log2FC” value (Gene 9833) was 0.433 and the “GINS1 log2FC” value (Gene 9837) was -0.673. The “MAGI2 log2FC” value (Gene 9863) was 0.425, the “TLK1 log2FC” value (Gene 9874) was 0.392 and the “POM121 log2FC” value (Gene 9883) was -0.667. For the same compound, the “KLHL21 log2FC” value (Gene 9903) was 0.769, the “DCLRE1A log2FC” value (Gene 9937) was 0.710 and the “USP3 log2FC” value (Gene 9960) was 0.530. For the same compound, the “THOC1 log2FC” value (Gene 9984) was 0.606, the “DMTF1 log2FC” value (Gene 9988) was 0.604 and the “CASP8AP2 log2FC” value (Gene 9994) was 0.813. For the same compound, the “PDCD6IP log2FC” value (Gene 10015) was 0.516, the “BCL2L11 log2FC” value (Gene 10018) was 0.145 and the “CHAF1A log2FC” value (Gene 10036) was -0.375. The “PARP3 log2FC” value (Gene 10039) was 0.325, the “TOM1L1 log2FC” value (Gene 10040) was 0.759 and the “SMC4 log2FC” value (Gene 10051) was 0.902. The “ACTR2 log2FC” value (Gene 10097) was -0.298, the “RAD50 log2FC” value (Gene 10111) was 0.524 and the “KIF20A log2FC” value (Gene 10112) was 0.476. For the same compound, the “OPTN log2FC” value (Gene 10133) was 0.838, the “AKAP9 log2FC” value (Gene 10142) was 1.382 and the “PSME3 log2FC” value (Gene 10197) was -1.314. The “MPHOSPH9 log2FC” value (Gene 10198) was 0.470, the “MPHOSPH6 log2FC” value (Gene 10200) was -0.666 and the “MAEA log2FC” value (Gene 10296) was -0.219. For the same compound, the “PAK4 log2FC” value (Gene 10298) was -0.601, the “NPM2 log2FC” value (Gene 10361) was -0.152 and the “HMG20B log2FC” value (Gene 10362) was 0.276. For the same compound, the “CITED2 log2FC” value (Gene 10370) was 2.261.
